Test results taken from paper PMC10610505, “Synthesis and Biological Evaluation of Some New 3-Aryl-2-thioxo-2,3-dihydroquinazolin-4(1H)-ones and 3-Aryl-2-(benzylthio)quinazolin-4(3H)-ones as Antioxidants; COX-2, LDHA, α-Glucosidase and α-Amylase Inhibitors; and Anti-Colon Carcinoma and Apoptosis-Inducing Agents” (Pharmaceuticals, 2023).
Several values for one entry are separate records, joined by “and”; a condition that tells them apart may be missing. Equal values may be shown once.

How the values were obtained:
[1] = system: HCT-116 human colon carcinoma cells; assay: Viability assay (LDH release), HCT-116; format: cell-based
Description: (§1) The anticancer activities of all the synthesized compounds were assessed against two human colon carcinoma cell lines, namely LoVo and HCT-116 (Table 6), via the determination of the mean percents of the viable cancerous cells remaining after being incubated with 200 µg/mL of each test compound for 48 h using LDH assay.
(§2) The samples were diluted in Dulbecco’s Modified Eagle’s Medium, consisting of 10% fetal bovine serum (FBS), added to cells grown and cultured for 24 h in a 5% CO2-humidified incubator at 37 °C. Thereafter, the activity of lactate dehydrogenase released from damaged cells was determined in the collected supernatant aliquots using an ELISA end-point assay (Benchmark Plus, Bio-Rad, CA, USA); 0.1% Triton X-100 in the assay medium and the assay medium only were used as the positive and negative controls, respectively. Cell viability was expressed as a relative percentage of the OD values (at 550 nm) for compound-treated cells (final concentration of 200 µg /mL) and the negative control, which was shown as the mean % ± SD (n = 3). The results of the viability assays for the potential cytotoxic candidates were compared with the % of viable human umbilical vein endothelial cells (HUVEC) at the same concentration. These cells were grown in Dulbecco’s Modified Eagle’s Medium (PAN-Biotech; Barcelona, Spain) containing 10% FBS (Sigma Aldrich; St. Quentin-Fallavier, France), 2 mM Glutamine (Sigma Aldrich), 100 units/mL penicillin and […] streptomycin (Life Technologies; Paisley, UK).

[2] = Viability assay (LDH release), HUVEC; format: cell-based, human; details: human, human umbilical vein endothelial cells (HUVEC); 200 µg/mL; read-out: Mean % of viable cells ± SD, HUVEC
Description: as §2

[3] = system: non-tumoral human umbilical vein endothelial cells (HUVEC); assay: Viability assay (LDH release), HUVEC; format: cell-based; details: Homo sapiens, HUVEC
Description: as §2

[4] = system: LoVo human colon carcinoma cells; assay: Viability assay (LDH release), LoVo; format: cell-based
Description: as §1, §2

[5] = target: α-glucosidase enzyme from Saccharomyces Cerevisiae (Saccharomyces cerevisiae, UniProt P53341); assay: In vitro α-glucosidase (AG) inhibitory activity; details: mean ± SD of three replicates
Sequence of α-glucosidase enzyme from Saccharomyces Cerevisiae (P53341 whole entry): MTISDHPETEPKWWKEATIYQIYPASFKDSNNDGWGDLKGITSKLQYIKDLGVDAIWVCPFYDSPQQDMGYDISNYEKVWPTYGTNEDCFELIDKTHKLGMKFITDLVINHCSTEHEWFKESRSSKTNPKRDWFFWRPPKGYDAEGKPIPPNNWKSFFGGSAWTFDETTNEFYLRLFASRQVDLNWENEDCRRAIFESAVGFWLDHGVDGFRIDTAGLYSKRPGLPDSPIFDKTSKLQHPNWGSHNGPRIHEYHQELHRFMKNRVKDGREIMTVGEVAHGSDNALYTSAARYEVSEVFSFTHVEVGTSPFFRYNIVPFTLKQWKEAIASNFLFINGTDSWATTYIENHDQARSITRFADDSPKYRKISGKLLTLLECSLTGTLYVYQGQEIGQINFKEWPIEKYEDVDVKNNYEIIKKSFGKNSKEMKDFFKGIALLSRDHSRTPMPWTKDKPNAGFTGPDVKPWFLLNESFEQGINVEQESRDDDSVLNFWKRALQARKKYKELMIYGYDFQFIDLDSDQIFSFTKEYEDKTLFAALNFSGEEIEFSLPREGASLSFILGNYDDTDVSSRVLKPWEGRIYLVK
Description: Then, the reaction was allowed to start by adding 150 µL of the color reagent 4-NPGP and the resulting mixture was incubated for additional 15 min at 37 °C. Collectively, the colorimetric assay medium contained 2U of α-glucosidase, 5 mM of 4-NPGP and 10 mM of the potassium phosphate buffer with a pH of 6.9. […] The inhibitory efficiency of each compound was expressed as IC50 µg/mL (as well as µM), which was calculated from the corresponding calibration curve.

[6] = DPPH radical scavenging assay; format: biochemical
Source text: In principle, the antioxidant power of a compound in this assay is correlated to its tendency to reduce the stable, purple-colored DPPH radical through a hydrogen atom transfer (HAT) mechanism and/or a single electron transfer mechanism, thereby converting it to the yellow-colored 2,2-diphenyl-1-picrylhydrazine, whereby this reduction is accompanied by a depletion in the amount of the initial DPPH radicals and a change in the absorbance of the test solution accordingly, which can be detected relative to the blank solution at λ = 517 nm.
The antioxidant potencies of all synthesized compounds were investigated using a 1,1 diphenyl-2-picrylhydrazyl (DPPH) radical scavenging assay according to the protocol described by Bersuder et al.. In brief, a 0.5 mL volume of DPPH ethanolic solution was mixed with an equal volume of each sample concentration (i.e., the test compound or butylated hydroxytoluene, BHT, which was used as the reference antioxidant in the positive control experiment), shaken strongly, and incubated at room temperature for 1 h in darkness. The absorbance of the residual DPPH radicals was measured at λ = 519 nm and compared to the negative control (without the test compound or reference antioxidant). The DPPH radical scavenging power was calculated using the following formula: scavenging efficiency (%) = (1 − Acompound/AControl) × 100, where Acompound and Acontrol are the absorbance of the tested compound and the negative control, respectively. […] Additionally, the ± SD values were calculated from three independent triplicate measurements.

COX-2 = target: T1, COX-2 (Homo sapiens, UniProt P35354); assay: COX-2 inhibitory screening assay (Cayman kit); format: biochemical
T1 construct: purchased Cayman Chemical Company 701080
T1 sequence (P35354 18-604): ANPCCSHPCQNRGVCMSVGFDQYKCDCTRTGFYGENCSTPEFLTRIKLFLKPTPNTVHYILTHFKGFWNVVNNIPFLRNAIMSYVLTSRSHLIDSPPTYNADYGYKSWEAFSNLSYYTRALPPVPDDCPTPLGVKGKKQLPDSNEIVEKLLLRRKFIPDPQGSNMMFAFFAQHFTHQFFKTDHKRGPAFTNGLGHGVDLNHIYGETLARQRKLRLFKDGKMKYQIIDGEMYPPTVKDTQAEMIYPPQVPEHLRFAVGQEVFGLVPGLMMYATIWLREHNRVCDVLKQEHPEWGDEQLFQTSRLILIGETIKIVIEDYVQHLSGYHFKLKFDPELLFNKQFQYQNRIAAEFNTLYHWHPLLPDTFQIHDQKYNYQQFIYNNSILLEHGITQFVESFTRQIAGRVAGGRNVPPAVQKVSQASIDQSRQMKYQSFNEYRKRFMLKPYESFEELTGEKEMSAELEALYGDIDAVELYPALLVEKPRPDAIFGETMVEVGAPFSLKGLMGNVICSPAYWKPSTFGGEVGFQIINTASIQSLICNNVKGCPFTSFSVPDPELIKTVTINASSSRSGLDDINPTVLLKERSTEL
Description: Each compound of the two series, 3a–h and 5a–h, was resuspended in 100% DMSO at a final concentration of 10 mg/mL. […] Briefly, 10 µL of the tested compound was added to a mixture of the reaction buffer solution (160 µL of 0.1 M Tris-HCl, pH 8.0, in the presence of 2 mM phenol and 5 mM EDTA), COX-2 (10 µL) and heme (10 µL). After a 10 min incubation at 37 °C, the reaction was started by adding arachidonic acid (10 µL), rapidly mixed and kept at 37 °C for 2 min. PGF2α generated via PGH2 reduction with stannous chloride (30 µL) was incubated at room temperature for 5 min. The PGF2α amount was then determined via an enzyme immunoassay. Prior to incubation with the COX-2 reaction (at room temperature 18 h), the 96-well plate was previously coated with a mouse anti-rabbit monoclonal antibody. Unbound reagents were removed by washing the plate followed by adding Ellman’s reagent to the well. The reaction product displaying a distinct yellow color was measured at 410 nm using a UV microplate reader. The % inhibition was calculated by comparing the PGF2α produced in the compound-treated samples with a control sample, using the following equation: % inhibition is equal to [([PGF2α]control − [PGF2α]sample) /[PGF2α ]control ] × 100. […] The COX-2 inhibitory efficiency was expressed as an inhibition percentage, which was determined via a comparison with the negative control experiments.

α-amylase = assay: In vitro α-amylase (AA) inhibition assay; details: mean ± SD of three replicates
Description: Then, 180 µL of Labtest (the amylase substrate) was added and the samples were incubated for 8 min, followed by measuring the first reaction at 620 nm to obtain (X1). Afterwards, the reaction mixture was incubated for an additional 5 min at 37 °C; then, the second reaction was measured to obtain the final reading (X2). […] The results were expressed as IC50 µg/mL (as well as µM) and were determined from the standard curves.

[7] = target: purified recombinant human LDHA protein (Homo sapiens, UniProt P00338); assay: Lactate dehydrogenase A (LDHA) inhibitory assay; format: biochemical
Description: The LDHA inhibitory effectiveness was investigated by measuring the amounts of consumed NADH [73]. […] The fluorescence of NADH, which has an excitation wavelength of 340 nm and an emission wavelength of 460 nm, was detected using a spectrofluorometer. […] The LDHA inhibitory efficiency was expressed as an inhibition percentage, which was determined via a comparison with the negative control experiments.

[8] = % inhibition at 0.200 mg/mL divided by % inhibition at 0.100 mg/mL

Compound	Selectivity index (IC50 normal cell / IC50 cell line), HCT-116 ([1]; HUVEC vs HCT-116)	IC50 ([1]; Homo sapiens, HCT-116, from concentration–response curves)	viability at 200 µg/mL [2]	IC50 [3]	Selectivity index (IC50 normal cell / IC50 cell line), LoVo ([4]; HUVEC vs LoVo)	IC50 ([4]; Homo sapiens, LoVo, from concentration–response curves)	Mean IC50 α-Glucosidase (AG) [5]	IC50 ([5]; read-out: Mean IC50 α-Glucosidase (AG))	Mean IC50 for scavenging initial DPPH radicals ([6]; mean ± SD of three replicates)	IC50 ([6]; mean ± SD, converted from mg/mL, read-out: Mean IC50 for scavenging initial DPPH radicals (converted))	Increase in COX-2 inhibitory efficiency by duplicating the concentration (COX-2; [8])	COX-2 mean % inhibition ± SD (COX-2; at 0.100 mg/mL)	COX-2 mean % inhibition ± SD (COX-2; at 0.200 mg/mL)	Mean % of viable cells ± SD, HCT-116 ([1]; 200 µg/mL, 48 h)	Mean IC50 α-Amylase (AA) (α-amylase)	IC50 (α-amylase; read-out: Mean IC50 α-Amylase (AA))	Fold change of LDHA inhibition as compared to 0.1 mg/mL [7, 8]	LDHA mean % inhibition ± SD ([7]; at 0.1 mg/mL)	LDHA mean % inhibition ± SD ([7]; at 0.2 mg/mL)	Mean % of viable cells ± SD, LoVo ([4]; 200 µg/mL, 48 h)
O=c1[nH]cc(F)c(=O)[nH]1 [Compound 5-FU, 5-Fluorouracil, reference compound]	25.190	11.8 µg/mL and 91.1 µM	57.3 ± 2.52%	298 µg/mL and 2.29 mM	102.577	2.91 µg/mL and 22.4 µM	–	–	–	–	–	–	–	–	–	–	–	–	–	–
O=c1c2cc(Cl)ccc2nc(SCc2ccc(Cl)cc2)n1-c1ccc(C(F)(F)F)cc1 [Compound 5d, 2-(4-Chloro-benzylsulfanyl)-6-chloro-3-(4-trifluoromethyl-phenyl)-3H-quinazolin-4-one]	–	–	–	–	–	–	38.100 ± 0.656 µg/mL	79.2 µM	200 ± 28 µg/mL	416 µM	1.68 fold	26.300 ± 1.839%	44.050 ± 1.344%	86.667 ± 1.528%	181.667 ± 5.508 µg/mL	377 µM	1.47 fold	13.850 ± 2.051%	20.400 ± 1.980%	76.000 ± 1.732%
